Test results taken from patent publication US20210085703A1, “Compositions and Methods for Preventing or Treating Nephrolithiasis” (SP Nutraceuticals, Inc., priority 2017, published 2021).
Like-named read-outs stand apart in the source and are kept apart here.

Legend:
[1] = In vitro patient-urine based analysis of arbutin and calcium oxalate interactions (birefringence); parameters: species or system human; settings: 1 mM arbutin, pH7/37° C., 24 hours
Protocol: 50 μl of recurrent calcium oxalate stone forming patient urine and healthy urine samples were combined with 45 μl of 20 mM 4-(2-hydroxyethyl)-1-piperazineethanesulfonic acid (HEPES) buffer (pH 7-8). 5 μl of 20 mM arbutin was added to each solution to form a 1 mM final concentration of the drug. Immediately after addition of the drug, 5 μl of each sample was spotted on a glass slide and birefringence data was imaged on confocal microscope. Each sample was incubated at 37° C. for 24 hours. 5 μl of the sample was identically collected and reimaged. The percent area of birefringence was data analysed as described above. This experiment was repeated in sodium acetate/acetic acid buffer at pH of 4 to observe the efficacy of arbutin in acidic environments. Reduction of percentage stone reduction was analysed using one way ANOVA. Control experiments were conducted using Quick Fix plus synthetic urine from Spectrum labs Cincinnati, Ohio, USA.

[2] = rat; cited from earlier work
[3] = mouse; cited from earlier work
[4] = test system: calcium oxalate calculi deposition in fecal excreta of D. melanogaster; assay: Drug library screening by D. melanogaster fecal excreta birefringence assay; assay type: in vivo, Drosophila melanogaster; settings: 20 μM candidate compound in fly media with 0.5% (w/v) sodium oxalate; duplicates
Protocol: To quantify calcium oxalate calculi via D. melanogaster excreta birefringence assay, approximately 20 newly eclosed flies were added to each of 15 vials containing either of the lithogenic diets or standard food medium as a control. Stone forming diets were prepared according to the method discussed above. A glass coverslip (18×18 mm) was suspended from the cotton tube plug to allow for the collection of fecal matter. Following a 14-day incubation period, the coverslip was extracted from each tube and each coverslip was directly imaged by confocal microscopy under polarized light. Control experiments performed in a similar fashion with standard food media. The percent area of birefringence for each coverslip was individually analyzed and quantified using NIH ImageJ software (Particle Analysis function). […] The percentage area of birefringence was quantified and compared birefringence data from control experiments with separately prepared 0.5% sodium oxalate media with no addition of candidate compounds. […] After 7 days of incubation and ingestion of drug candidates, viability of flies was quantitated and all coverslips containing fecal excreta were analyzed for birefringence signal (FIG. 2d).

[5] = test system: calcium oxalate stone formation in D. melanogaster; assay: Dose response relationship of arbutin and calcium oxalate stone formation (fecal excreta and dissected Malpighian tubules); assay type: in vivo, Drosophila melanogaster
Protocol: To quantify calcium oxalate calculi via D. melanogaster excreta birefringence assay, approximately 20 newly eclosed flies were added to each of 15 vials containing either of the lithogenic diets or standard food medium as a control. Stone forming diets were prepared according to the method discussed above. A glass coverslip (18×18 mm) was suspended from the cotton tube plug to allow for the collection of fecal matter. Following a 14-day incubation period, the coverslip was extracted from each tube and each coverslip was directly imaged by confocal microscopy under polarized light. Control experiments performed in a similar fashion with standard food media. The percent area of birefringence for each coverslip was individually analyzed and quantified using NIH ImageJ software (Particle Analysis function). In order to measure dose response relationship of arbutin and calcium oxalate stone formation, thirty milliliters of 0.5% (w/v) sodium oxalate media was prepared with […] arbutin. A 10-fold serial dilution was performed to obtain 15 ml of media per dilution. Each dilution was divided into 3 narrow fly vials to yield triplicates. Approximately 20 newly eclosed flies were added to each vial with a glass coverslip (18×18mm) suspended from the cotton via plug to collect fecal matter. After a 14-day incubation period, each coverslip was extracted and stone burden was quantified as described above to observe the dose-response relationship between arbutin concentration and percentage area of birefringence.

[6] = in vitro or in vivo studies; cited from earlier work
[7] = test system: HEK293 cells; assay: Cytotoxicity assay (LDH release) of sodium oxalate and arbutin on human kidney epithelial cells; assay type: cell-based; settings: arbutin 1 mM final with oxalate, 30 min incubation
Protocol: (§1) To assess the cytotoxity of sodium oxalate and arbutin, human embryonic kidney epithelial cells (HEK293; ATCC® CRL-1573™), were cultured in 6-well plate containing 18 mm diameter glass coverslips to 50% confluence. Following aspiration of culture medium, the cells were incubated in a chloride-free solution containing 130 mM Potassium Gluconate, 5 mM Glucose, and 20 mM HEPES (pH 7.4) and 20 μM sodium oxalate for 30 minutes. The treated media was then removed and stored at 4° C. for further analysis. Cells were washed with Cl-free buffer and stained with 20 μM Cell tracker red CMTPX Dye (ThermoFisher Scientific) for 15 mins. Cells were triple washed with Cl-buffer and coverslips were mounted with ProLong® Gold Antifade Mountant with DAPI (ThermoFisher Scientific) without permeabilizing in preparation for confocal microscopy. Samples were imaged using a Nikon A1R+ confocal microscope (1.2 au) with a 20× dry or 60× oil-immersion lens and presented using NIS Elements software (Nikon).
The cytotoxicity of HEK293 cells in sodium oxalate media with or without arbutin was determined by quantifying […] (LDH) content liberated by damaged cells using Cytotoxicity Detection KitPLUS (LDH) (Roche) following the manufacturers instructions. Absorbance readings were taken at 492 nm using BioTek PowerWave HT Microplate Spectrophotometer.

[8] = cited from earlier work
[9] = test system: HEK293 cells; assay: Cell viability of HEK cells under oxalate conditions with arbutin; assay type: cell-based, human
Protocol: FIG. 6a) Confocal fluorescence images of HEK293 cells stained with CellTracker Red to label the cell surface and Hoechst to label the nuclei. HEK293 cells were treated with 20 μM sodium oxalate for 30 mins. Birefringence signal was observed within HEK293 cells (white signal). FIG. 6b) Activity of LDH released from HEK293 cells after 30 min incubation with oxalate in the presence or absence of arbutin. FIG. 6c) Cell viability in arbutin treated HEK293 and PC3MLN4 cells over a 3 day period. Green line represents control normalized to 100% at that same timepoint. *** denotes p<0.05, two way ANOVA; Scheffe a correction.
as §1, with “Following aspiration of culture medium, the cells were incubated in a chloride-free solution containing 130 mM Potassium Gluconate, 5 mM Glucose, and 20 mM HEPES (pH 7.4) and 20 μM sodium oxalate for 30 minutes.” left out

[10] = Preliminary NMR studies of arbutin in acidic conditions; assay type: physicochemical; settings: low pH, in solution
Source text: Arbutin has been described to readily degrade into the split components D-glucose and HQ (and conjugates) in acidic environments, an enteric coated tablet vehicle could potentially be utilised to bypass hydrolysis by stomach acids and improve oral bioavailability.

[11] = test system: calcium oxalate stone burden in D. melanogaster fed patient urine; assay: Patient derived urine based calcium oxalate stone induction in D. melanogaster; assay type: in vivo, Drosophila melanogaster
Protocol: In addition, effect of arbutin on patient derived urine based calcium oxalate stone induction in D. melanogaster was assessed. Urine samples were collected from recurrent calcium oxalate stone forming patients (n=10 patients) and centrifuged at 2500 rpm. One milliter aliquots of supernatant were prepared and stored at −80° C. for further analysis. Ten milliters of standard medium was prepared and thoroughly mixed with 1mL of patient urine, this was separated into two individual narrow vials (5 mL per vial). Approximately 20 newly eclosed flies were added to each vial. A glass coverslip (18×18 mm) was suspended from the cotton vial plug to collect fecal matter. […] Stone burden on each coverslip was quantified via the aforementioned birefringence assay and results were expressed as mean±standard error of mean (SEM). Percentage stone burden were analyzed using one way analysis of variance (ANOVA), (Prism 6, GraphPad Software, Inc., San Diego, Calif., USA) (FIG. 3e).
D. melanogaster incubated in this patient urine based model generated calculi in the same manner as with fly food supplemented with sodium oxalate. […] Various pH's were evaluated in order to recapitulate the pH in human urine at the kidney and bladder (pH 4-6) with a greater reduction in calculi formation observed at pH 7-8 (FIG. 3f, * denotes p<0.05, two-way ANOVA, Scheffe a correction).

Question: With `OCC1OC(Oc2ccc(O)cc2)C(O)C(O)C1O` [arbutin, hydroquinone β-D-glucopyranoside] as the compound, how does the “difference in birefringence events in control, healthy urine samples” value [1] read?
Answer: Its value is “not significant”.

Question: And the “birefringence events in nephrolithiasis patient urine samples” value ([1]; n=3)?
Answer: Its value is “significant reduction in birefringence events”.

Question: And the “acute and chronic toxicity by oral dosing” value [2]?
Answer: Its value is “low risk of acute and chronic toxicity”.

Question: And the “acute and chronic toxicity by oral dosing” value [3]?
Answer: The value was “low risk of acute and chronic toxicity”.

Question: What about the “anti-lithogenic activity in library screen (calculi deposition in fecal excreta)” value [4] of the same compound?
Answer: Its value is “consistently exhibited anti-lithogenic activity”.

Question: And the “calculi content in MTs” value ([5]; 32 μM and 512 μM arbutin treatment)?
Answer: Its value is “decreases in calculi content in MTs”.

Question: And the “arbutin concentration at which calculi content in fecal excreta significantly decreased” value ([5]; 0.5% (w/v) sodium oxalate media, 14-day incubation)?
Answer: The value was over 64 µM.

Question: What about the IC50 ([5]; Drosophila melanogaster, 336 h, 0.5% (w/v) sodium oxalate media, 14-day incubation, read-out: calculated IC50, calculi content deposited in fecal excreta) of the same compound?
Answer: The IC50 was 40 µM.

Question: What about the “calculi deposits in dissected MTs compared to controls” value ([5]; arbutin at 1 mM in fly media+0.05% sodium oxalate, controls fly media+0.5% oxalate±DMSO) of the same compound?
Answer: The value was “near abrogation of calculi deposits”.

Question: And the “lowest concentration with anti-lithogenic abilities” value ([5]; fly media supplemented with sodium oxalate (0.5%))?
Answer: Its value is 64 µM.

Question: What about the genotoxic effects [6] of the same compound?
Answer: The genotoxic effects was “No genotoxic effects”.

Question: And the “LDH activity compared to arbutin treatment alone” value [7]?
Answer: The value was “no impact”.

Question: What about the “administered arbutin dose retrieved in the urine as HQ conjugates” value ([8]; human, 4 hrs following an oral dose) of the same compound?
Answer: The value was “approximately 70%”.

Question: And the “absorption from the GI tract” value ([8]; oral)?
Answer: The value was “heavily absorbed from the GI tract”.

Question: And the “cell viability compared to arbutin treatment alone” value ([9]; arbutin 1 mM final with oxalate, HEK cells)?
Answer: The value was “no impact”.

Question: What about the “effect on oxalate induced loss of cell viability” value ([9]; arbutin 1 mM final, HEK cells under 0.1% calcium oxalate conditions) of the same compound?
Answer: The value was “ameliorated this effect”.

Question: And the “stability in acidic conditions (NMR)” value [10]?
Answer: Its value is “stable”.

Question: And the “stone burden via fecal excreta assay in comparison with citrate” value ([11]; 1 mM final concentration in fly media with patient urine, regardless of pH)?
Answer: The value was “significant decrease in stone burden”.

Question: What about the “pH with greater reduction in calculi formation” value ([11]; 1 mM in fly media with patient urine, various pHs) of the same compound?
Answer: Its value is 7-8 pH.
